Read-outs that look alike come from different tables or passages of the source.
Assays:
patients = settings: cited from earlier work
rats = settings: cited from earlier work
[1] = clinical trial; cited from earlier work
[2] = in vivo; cited from earlier work
P2X2/3 = target: T1, P2X2/3 (Homo sapiens, UniProt P56373+Q9UBL9); test: P2X2/3 stable HEK293 cell lines responding to α,β-meATP (screening assay); type: cell-based
T1 construct: expressed in transfected cells; host or cells: HEK293
T1 sequence (Q9UBL9 1-471): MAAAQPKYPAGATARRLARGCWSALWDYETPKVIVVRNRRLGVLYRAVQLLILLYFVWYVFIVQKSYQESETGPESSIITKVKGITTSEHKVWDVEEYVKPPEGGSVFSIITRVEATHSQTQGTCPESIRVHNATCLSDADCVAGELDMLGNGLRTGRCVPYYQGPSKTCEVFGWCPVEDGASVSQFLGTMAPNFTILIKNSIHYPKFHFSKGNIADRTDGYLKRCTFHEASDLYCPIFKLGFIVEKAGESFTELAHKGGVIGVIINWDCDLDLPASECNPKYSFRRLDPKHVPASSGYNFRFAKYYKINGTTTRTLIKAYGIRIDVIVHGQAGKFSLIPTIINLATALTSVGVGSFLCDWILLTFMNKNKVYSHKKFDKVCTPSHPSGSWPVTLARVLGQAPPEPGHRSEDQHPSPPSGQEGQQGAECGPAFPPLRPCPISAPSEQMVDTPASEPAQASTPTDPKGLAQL
T1 sequence (P56373 1-397): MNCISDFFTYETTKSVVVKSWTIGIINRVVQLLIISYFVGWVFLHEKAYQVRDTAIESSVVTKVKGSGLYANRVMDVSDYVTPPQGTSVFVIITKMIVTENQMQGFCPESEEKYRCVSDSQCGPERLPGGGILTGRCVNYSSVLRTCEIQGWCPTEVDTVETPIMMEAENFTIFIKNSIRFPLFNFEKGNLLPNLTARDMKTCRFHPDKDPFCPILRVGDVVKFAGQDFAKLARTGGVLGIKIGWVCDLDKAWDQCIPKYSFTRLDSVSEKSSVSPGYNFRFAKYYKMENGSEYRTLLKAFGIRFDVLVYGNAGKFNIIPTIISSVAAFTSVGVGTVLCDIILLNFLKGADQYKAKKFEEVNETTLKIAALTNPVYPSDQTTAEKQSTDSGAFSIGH
Experimental: In this study, we built stable cell lines expressing P2X2/3 in HEK293 cells via transfection with either P2X2-Neo or P2X3-Zeo constructs, following which selection was performed using Zeocin, G418. Picked clones were grown out from single cells (cultured continuously in the presence of Zeocin and G418) using cloning rings.
The resulted stable cell lines are used for characterizing putative taste-blockers.

Experimental for humans: In some experiments, we used a regimen of two 1-minute rinses with 500 μM AF-353 composition (i.e., oral topical administration).
In this study, we tested an AF-353 composition in humans as an oral rinse after receiving IRB approval for its use. First, we tested rinsing 100 μM (0.04 mg/mL) orally for 2 minutes as 4×30 sec rinses with expectoration. We tested before and after sour, bitter, sweet, and salty solutions (quinine HCl, NaCl, Praziquantal, sucrose, CO2).
Next, we tested rinsing 500 μM (0.2 mg/mL) AF-353 for two minutes, in 2×1 min increment rinses with expectoration.

For `COc1cc(C(C)C)c(Oc2cnc(N)nc2N)cc1S(N)(=O)=O` [AF-219, 5-[(2,4-diaminopyrimidin-5-yl)oxy]-2-methoxy-4-(propan-2-yl)benzene-1-sulfonamide], the taste disturbances (patients; 600 mg twice daily) is given as “taste disturbances in all patients tested”, the taste disturbances (patients; doses as low as 7.5-50 mg twice daily) is given as “also cause taste disturbances, albeit less severe” and the taste block (humans; 500 μM, preliminary test) is given as “did not block taste”.

In the case of `O=C(NCC12CC3CC(CC(C3)C1)C2)c1cc(CCCNCCCO)ccc1Cl` [AZD-9056], the taste block (humans; various concentration, negative control composition) is reported as “did not block taste”.

In the case of `CNC(=O)c1cc(F)c(-c2nc3cc(C)ccn3c2C[C@@H]2CCCN(C(=O)OC)C2)c(F)c1` [BLU-5937, Methyl (S)-3-((2-(2,6-difluoro-4-(methylcarbamoyl)phenyl)-7-methylimidazo[1,2-a]pyridin-3-yl)methyl)piperidine-1-carboxylate], the influence on taste (rats; rat, 10-20 mg/kg intraperitoneally) is listed as “did not influence taste” and the “behaviour towards 0.3 mM quinine hydrochloride in two-bottle choice” value (rats; rats, 10 or 20 mg/kg ip, 15-min test) is listed as “avoided the quinine”.

For `Cc1cnc(-c2cc(O[C@@H]3CCOC3)cc(C(=O)N[C@H](C)c3cnc(C(F)(F)F)nc3)c2)s1` [eliapixant], the “taste-related adverse events (primarily dysgeusia)” value [1] is listed as “caused taste-related adverse events” and the “effects on ratings of taste intensity measured using taste strips” value [2] is listed as “no concerted effects”.

`Nc1ncnc2c1ncn2[C@@H]1O[C@H](COP(=O)(O)CP(=O)(O)OP(=O)(O)O)[C@@H](O)[C@H]1O` [α,β-meATP] showed an IC50 (P2X2/3; P2X2/3 stable Line 2) of 2.01 µM, an IC50 (P2X2/3; P2X2/3 stable Line 6) of 2.1 µM and an IC50 (P2X2/3; P2X2/3 stable Line 9) of 3.93 µM. For the same compound, the IC50 (P2X2/3; P2X2/3 stable Line 12) was 1.78 µM and the IC50 (P2X2/3; P2X2/3 stable Line 24) was 2.75 µM.
